The results in this text go back to PubChem BioAssay (NCI).

Where “and” joins values, the source holds several entries; their conditions need not be identical. Identical values can stand only once.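 Each compound was tested at five concentrations against cells in 96-well plates for 48 hours. GI50: concentration for 50% inhibition of growth. TGI denotes the concentration required for complete inhibition of growth.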

Test systems include NCI/ADR-RES ovarian; HOP-92 NSCLC; HT29 colon; OVCAR-4 ovarian; SNB-19 CNS; A498 renal; SK-MEL-2 melanoma; UACC-257 melanoma; 786-0 renal; NCI-H226 lung.
Common to all, as to experiment: DTP human tumour cell line panel, 48 h

On to `Fc1ccc2c(c1)C1=C(CO2)C(c2ccc(Cl)cc2)NC(=S)N1` (configuration not stated), for which the GI50 is 29.8 µM with NCI/ADR-RES ovarian; 61 µM in the test with HOP-92 NSCLC; 51.3 µM in the test with HT29 colon; 51.9 µM with OVCAR-4 ovarian; 44.1 µM in the test with SNB-19 CNS; 17.4 µM in the test with A498 renal. Further, the values for the GI50 with SK-MEL-2 melanoma, in the test on UACC-257 melanoma and with 786-0 renal were 24.3 µM, 29.4 µM and 21.3 µM, respectively. The TGI with NCI/ADR-RES ovarian is 65.4 µM; in the test with HOP-92 NSCLC it was > 100 µM; in the test on HT29 colon, > 100 µM; with OVCAR-4 ovarian it was > 100 µM; in the test with SNB-19 CNS, > 100 µM; in the test with A498 renal, 73.7 µM. Further, the TGI is 46.9 µM in the test on SK-MEL-2 melanoma, 95.3 µM in the test with UACC-257 melanoma and 46 µM in the test with 786-0 renal.

Take `c1ccc(B2OCC(C3OB(c4ccccc4)OC4COB(c5ccccc5)OC43)O2)cc1` (configuration not stated): the TGI in the test on NCI/ADR-RES ovarian, in the test with HOP-92 NSCLC, with HT29 colon, with OVCAR-4 ovarian, in the test on SNB-19 CNS and in the test with A498 renal was > 100 µM each time. Besides, the TGI in the test with SK-MEL-2 melanoma, in the test on UACC-257 melanoma and in the test with 786-0 renal was > 100 µM in each case.

For `CCC1(NC(=O)c2cc(F)c(F)c(F)c2F)C(=O)NC(=O)N(C(C)C)C1=O` (configuration not stated), the GI50 in the test with NCI/ADR-RES ovarian is 31.8 µM; with HOP-92 NSCLC, 17.4 µM; in the test with HT29 colon, 22.6 µM; in the test with OVCAR-4 ovarian, > 100 µM; in the test on SNB-19 CNS it was 19.6 µM; with NCI-H226 lung, 19.1 µM. Also, the figures for the GI50 in the test with A498 renal, in the test with UACC-257 melanoma and in the test with 786-0 renal were 23.5 µM, 32.1 µM and > 100 µM, respectively. The TGI in the test with NCI/ADR-RES ovarian is 88.3 µM; in the test with HOP-92 NSCLC, 63.7 µM; with HT29 colon, > 100 µM; in the test on OVCAR-4 ovarian, > 100 µM; with SNB-19 CNS, 42.2 µM; in the test on NCI-H226 lung it was 46.4 µM. The TGI in the test on A498 renal is 53 µM; in the test with UACC-257 melanoma, > 100 µM; with 786-0 renal, > 100 µM.

As to `Cc1cnccc1N=Nc1ccc(N(C)C)cc1`, the TGI with NCI/ADR-RES ovarian was 46.4 µM; in the test with HOP-92 NSCLC, 36.1 µM; in the test with HT29 colon, 53.9 µM; in the test with OVCAR-4 ovarian, 61.2 µM; in the test on SNB-19 CNS, > 100 µM; in the test on NCI-H226 lung, 29.1 µM. The TGI with A498 renal is 94.1 µM; in the test with UACC-257 melanoma, 53.5 µM; with 786-0 renal, > 100 µM.

Consider `FC(F)(F)c1cccc2c(SCCc3n[nH]c(=S)o3)ccnc12`, for which the GI50 in the test on NCI/ADR-RES ovarian was 38 µM; with HOP-92 NSCLC, 28.4 µM; with HT29 colon, 64.2 µM; in the test with OVCAR-4 ovarian, 32.5 µM; in the test on SNB-19 CNS, 54.2 µM; in the test with NCI-H226 lung, 37.1 µM. Also, the GI50 was 25.4 µM with SK-MEL-2 melanoma, 33.3 µM in the test on UACC-257 melanoma and > 100 µM in the test with 786-0 renal. Also, the TGI in the test on NCI/ADR-RES ovarian is > 100 µM; in the test with HOP-92 NSCLC it was 81.6 µM; with HT29 colon, > 100 µM; with OVCAR-4 ovarian, > 100 µM; with SNB-19 CNS, > 100 µM; in the test on NCI-H226 lung, > 100 µM. In addition, the TGI in the test with SK-MEL-2 melanoma is 82.6 µM; with UACC-257 melanoma, 89 µM; in the test on 786-0 renal, > 100 µM.

Take `Cn1c(=O)c(C(=O)NC(=O)NCCCCCOC(=O)CCCCCCCCCCC(=O)OCCCCCNC(=O)NC(=O)c2cn(Cc3ccccc3)c(=O)n(C)c2=O)cn(Cc2ccccc2)c1=O`: the TGI with HOP-92 NSCLC, in the test on HT29 colon, with OVCAR-4 ovarian, in the test with SNB-19 CNS, in the test with NCI-H226 lung and in the test with A498 renal was > 100 µM throughout. The TGI in the test on SK-MEL-2 melanoma, in the test with UACC-257 melanoma and in the test on 786-0 renal was > 100 µM in each case.

`Nc1c(C(=O)N/N=C/c2ccc(-c3cc(Cl)c(Cl)cc3Cl)o2)cnn1-c1ccnc2c(C(F)(F)F)cccc12`: the GI50 with NCI/ADR-RES ovarian was 3.58 µM; in the test on HOP-92 NSCLC it was 2.57 µM; in the test with HT29 colon, 2.73 µM; in the test with OVCAR-4 ovarian, 2.6 µM; in the test with SNB-19 CNS it was 4.17 µM; with NCI-H226 lung, 5.62 µM. Besides, the GI50 with A498 renal was 3.89 µM; with SK-MEL-2 melanoma, 5.31 µM; with 786-0 renal, 3.96 µM. For the same compound, the TGI in the test with NCI/ADR-RES ovarian is 87.9 µM; with HOP-92 NSCLC it was 7 µM; in the test with HT29 colon it was 28 µM; in the test on OVCAR-4 ovarian, 9.4 µM; with SNB-19 CNS it was > 100 µM; in the test on NCI-H226 lung, > 100 µM. For the same compound, the TGI in the test with A498 renal was 37.7 µM; in the test with SK-MEL-2 melanoma it was 34.3 µM; in the test on 786-0 renal it was > 100 µM.

On to `CC(=O)OC(C)c1cc2c(s1)C(=O)c1c(C(C)OC(C)=O)csc1C2=O` (configuration not stated), for which the TGI in the test on NCI/ADR-RES ovarian was determined as 3.62 µM; in the test with HOP-92 NSCLC, 5.55 µM; with HT29 colon, 4.35 µM; in the test with OVCAR-4 ovarian, 2.75 µM; with NCI-H226 lung, 3.62 µM; in the test on A498 renal, 3.64 µM. For the same compound, the TGI in the test on SK-MEL-2 melanoma stood at 3.56 µM; in the test with UACC-257 melanoma, 1.89 µM; in the test with 786-0 renal it was 4.93 µM. Besides, the GI50 was 1.56 µM with SK-MEL-2 melanoma and 0.631 µM in the test on UACC-257 melanoma.

As for `CC(C)CC12CC3CCC(CNC1=O)C32C` (configuration not stated), the TGI with HOP-92 NSCLC, with HT29 colon, in the test on OVCAR-4 ovarian, in the test with SNB-19 CNS, in the test with NCI-H226 lung and in the test with A498 renal was > 100 µM throughout. For the same compound, the TGI in the test on SK-MEL-2 melanoma, with UACC-257 melanoma and in the test on 786-0 renal was > 100 µM each time.

In the case of `CC(=O)[O-].[Zn].c1ccc(/C(=N\Nc2ccccn2)c2ccccn2)cc1`, the GI50 is 0.0122 µM in the test on HOP-92 NSCLC, 1.09 µM with HT29 colon, 0.212 µM in the test on NCI-H226 lung and 0.366 µM with 786-0 renal. The TGI in the test with HOP-92 NSCLC is 13.3 µM; with HT29 colon, 4.13 µM; with OVCAR-4 ovarian, 18.1 µM; in the test on SNB-19 CNS it was 5.73 µM; in the test on NCI-H226 lung it was 0.962 µM and 5.73 µM; with A498 renal, 9.16 µM. The TGI was 10.6 µM in the test on SK-MEL-2 melanoma, 2.08 µM in the test with UACC-257 melanoma and 2.16 µM in the test with 786-0 renal.
